US5192784A, “Etanidazole injectable solution” (Du Pont Merck Pharmaceutical Company, priority 1992, dated 1993)
Values after ≈ are worked out from the molar mass of the structure shown.

Experiments:
[1] = Chemical stability (hydrolysis kinetics) of etanidazole in buffered solutions at 80° C.; assay type: physicochemical; conditions: for kobs, observed first-order rate constant: mean, n = 3
Description: (§1) The k values shown in Tables 1-5 and FIG. 1 should be multipled by a factor of 2.303 to provide the actual k value.
(§2) The chemical stability of etanidazole was evaluated in solutions of varying composition stored at 80° C. Etanidazole was placed into suitable containers and sufficient buffer was added to result in a 1 mg/ml solution. A constant ionic strength of 0.3 was maintained with potassium chloride. All solutions were prepared in triplicate. The solution was divided into 2 ml sealed glass vials and was placed into cardboard storage boxes to protect the compound from light. At appropriate intervals, samples were removed from the stability chamber and cooled to room temperature. An aliquot of the sample was diluted with mobile phase containing internal standard prior to HPLC analysis. For those pH conditions where degradation was rapid, the sample aliquot was immediately quenched to neutral pH and room temperature.
(§3) Data were analyzed using methods as described by Martin et al. in "Physical Pharmacy", 3rd ed, pp 352-395 (1983).
In the intermediate pH range where buffers were employed, the observed first-order rate constant can be defined at any given pH with the following equation;
[…] [H+]+ko +kOH- [OH-]+kB [BT ]
where kH+ and kOH- are the second-order specific acid and specifiic base catalysis rate constants, respectively kB is the second-order rate constant for the catalysis due to the buffer, and [BT ] is the total buffer concentration. Plotting kobs vs [BT ] yields a slope of kB and a y-intercept of kH+ [H+]+ko +kOH- [OH-], the observed rate constant extrapolated to zero buffer concentration (k'). The observed rate constant extrapolated to zero buffer concentration (k') are used to generate the pH-rate profile (FIG. 1).
The buffer systems permit pH control through the equilibrium of their acidic and basic forms. Utilizing these equilibria, the rate constants for the individual buffer species may be calculated. In the acetate buffers, the second-order rate constant for the catalysis due to the acetate buffer is defined as follows;
[…]
where ^f CH3 COOH is the fraction of the acetate buffer in the neutral form, ^k (CH3 COOH) is the second-order rate constant for the catalysis due to the acetic acid species, ^f CH3 COO- is the fraction of the acetate buffer in the ionized form and ^k CH3 COO- is the second-order rate constant for the catalysis due to the acetate anion. Employing the same buffer for various pH conditions permits the determination of the second-order rate constants for the various species (Table 3).

[2] = Effect of autoclaving on crystal formation at 4° C. over 43 days, pH 3.0, 3.5 and 4.0; assay type: physicochemical; conditions: for samples that developed crystals: 50 mg/ml
Description: Further studies were done in which etanidazole (50 mg/ml) solutions at pH 3.0, 3.5, and 4.0 were prepared and the effect of autoclaving was evaluated. At pH 3.0, 0 of 48 autoclaved samples and 0 of 48 non-autoclaved samples developed crystals when stored at 4° C. over 43 days. At pH 3.5, 0 of 49 autoclaved samples developed crystals, and 3 of 50 non-autoclaved samples developed crystals when stored at 4° C. over 43 days. At pH 4.0, 0 of 50 autoclaved samples developed crystals when stored at 4° C. for 43 days, but 1 of 50 non-autoclaved samples developed crystals.

[3] = Effect of initial etanidazole concentration on rate of decomposition in 0.05M citrate pH 5.5, 80° C.; assay type: physicochemical
Description: as §1, §2, §3
The effect of initial etanidazole concentration on the rate of decomposition was examined in 0.05M citrate pH 5.5, at 80° C. Initial concentrations of 1, 25 and 50 mg/ml were employed.

Description for physchem: Solubility studies were carried out by placing excess etanidazole into a suitable container and rotating end-to-end for twenty four hours at 25° C. The suspension was passed through a 0.2μ filter with the first portion discarded to ensure saturation of the filter. An aliquot of the filtrate was diluted and analyzed by HPLC and the remainder of the filtrate was employed for pH determination.

O=C(Cn1ccnc1[N+](=O)[O-])NCCO [Etanidazole]
kobs, observed first-order rate constant ([1]; 0.01M HCl pH 2.2, 80° C.): 0.00824 day⁻¹ | kobs, observed first-order rate constant ([1]; 0.013M Citrate pH 6.5, 80° C.): 0.0106 day⁻¹ | kobs, observed first-order rate constant ([1]; 0.02M Citrate pH 5.5, 80° C.): 0.00843 day⁻¹ | kobs, observed first-order rate constant ([1]; 0.025M Phosphate pH 6.5, 80° C.): 0.0195 day⁻¹ | kobs, observed first-order rate constant ([1]; 0.03M Citrate pH 6.5, 80° C.): 0.0119 day⁻¹ | kobs, observed first-order rate constant ([1]; 0.05M Acetate pH 4.0, 80° C.): 0.00119 day⁻¹ | kobs, observed first-order rate constant ([1]; 0.05M Acetate pH 5.0, 80° C.): 0.00386 day⁻¹ | kobs, observed first-order rate constant ([1]; 0.05M Borate pH 9.2, 80° C.): 0.0333 day⁻¹ | kobs, observed first-order rate constant ([1]; 0.05M Citrate pH 3.0, 80° C.): 0.00575 day⁻¹ | kobs, observed first-order rate constant ([1]; 0.05M Citrate pH 4.5, 80° C.): 0.00336 day⁻¹ | kobs, observed first-order rate constant ([1]; 0.05M Citrate pH 5.5, 80° C.): 0.00957 day⁻¹ | kobs, observed first-order rate constant ([1]; 0.05M Phosphate pH 6.5, 80° C.): 0.0135 day⁻¹ | kobs, observed first-order rate constant ([1]; 0.05M Phosphate pH 7.4, 80° C.): 0.0168 day⁻¹ | kobs, observed first-order rate constant ([1]; 0.065M Citrate pH 6.5, 80° C.): 0.0132 day⁻¹ | kobs, observed first-order rate constant ([1]; 0.1M Acetate pH 4.0, 80° C.): 0.00185 day⁻¹ | kobs, observed first-order rate constant ([1]; 0.1M Acetate pH 5.0, 80° C.): 0.00516 day⁻¹ | kobs, observed first-order rate constant ([1]; 0.1M Borate pH 9.2, 80° C.): 0.0382 day⁻¹ | kobs, observed first-order rate constant ([1]; 0.1M Citrate pH 3.0, 80° C.): 0.00882 day⁻¹ | kobs, observed first-order rate constant ([1]; 0.1M Citrate pH 4.5, 80° C.): 0.00587 day⁻¹ | kobs, observed first-order rate constant ([1]; 0.1M Citrate pH 5.5, 80° C.): 0.0101 day⁻¹ | kobs, observed first-order rate constant ([1]; 0.1M HCl pH 1.0, 80° C.): 0.0961 day⁻¹ | kobs, observed first-order rate constant ([1]; 0.1M NaOH pH 12.6, 80° C.): 13.1 day⁻¹ | kobs, observed first-order rate constant ([1]; 0.1M Phosphate pH 6.5, 80° C.): 0.0149 day⁻¹ | kobs, observed first-order rate constant ([1]; 0.1M Phosphate pH 7.4, 80° C.): 0.0187 day⁻¹ | kobs, observed first-order rate constant ([1]; 0.135M Phosphate pH 7.4, 80° C.): 0.0183 day⁻¹ | kobs, observed first-order rate constant ([1]; 0.18M Citrate pH 4.5, 80° C.): 0.00789 day⁻¹ | kobs, observed first-order rate constant ([1]; 0.25M Acetate pH 4.0, 80° C.): 0.00342 day⁻¹ | kobs, observed first-order rate constant ([1]; 0.25M Acetate pH 5.0, 80° C.): 0.00801 day⁻¹ | kobs, observed first-order rate constant ([1]; 0.25M Borate pH 9.2, 80° C.): 0.0596 day⁻¹ | kobs, observed first-order rate constant ([1]; 0.25M Citrate pH 3.0, 80° C.): 0.0197 day⁻¹ | kobs, observed first-order rate constant ([1]; 0.3M HCl pH 0.62, 80° C.): 0.263 day⁻¹ | kobs, observed first-order rate constant ([1]; 0.3M NaOH pH 13.1, 80° C.): 52.9 day⁻¹ | k', first-order rate constant extrapolated to zero buffer concentration ([1]; Acetate pH 4.0, 80° C.): 0.000688 day⁻¹ | kB, second-order rate constant for the buffer catalysis ([1]; Acetate pH 4.0, 80° C.): 1.27e-07 M⁻¹ s⁻¹ | k', first-order rate constant extrapolated to zero buffer concentration ([1]; Acetate pH 5.0, 80° C.): 0.00296 day⁻¹ | kB, second-order rate constant for the buffer catalysis ([1]; Acetate pH 5.0, 80° C.): 2.35e-07 M⁻¹ s⁻¹ | kB, second-order rate constant for the buffer species ([1]; Acetic acid, 80° C.): 9.41e-08 M⁻¹ s⁻¹ | kB, second-order rate constant for the buffer species ([1]; Acetic^-1, 80° C.): 3.17e-07 M⁻¹ s⁻¹ | k', first-order rate constant extrapolated to zero buffer concentration ([1]; Borate pH 9.2, 80° C.): 0.0258 day⁻¹ | kB, second-order rate constant for the buffer catalysis ([1]; Borate pH 9.2, 80° C.): 1.55e-06 M⁻¹ s⁻¹ | k', first-order rate constant extrapolated to zero buffer concentration ([1]; Citrate pH 3.0, 80° C.): 0.00204 day⁻¹ | kB, second-order rate constant for the buffer catalysis ([1]; Citrate pH 3.0, 80° C.): 8.15e-07 M⁻¹ s⁻¹ | k', first-order rate constant extrapolated to zero buffer concentration ([1]; Citrate pH 4.5, 80° C.): 0.00197 day⁻¹ | kB, second-order rate constant for the buffer catalysis ([1]; Citrate pH 4.5, 80° C.): 3.94e-07 M⁻¹ s⁻¹ | k', first-order rate constant extrapolated to zero buffer concentration ([1]; Citrate pH 5.5, 80° C.): 0.00824 day⁻¹ | kB, second-order rate constant for the buffer catalysis ([1]; Citrate pH 5.5, 80° C.): 2.29e-07 M⁻¹ s⁻¹ | k', first-order rate constant extrapolated to zero buffer concentration ([1]; Citrate pH 6.5, 80° C.): 0.0102 day⁻¹ | kB, second-order rate constant for the buffer catalysis ([1]; Citrate pH 6.5, 80° C.): 5.57e-07 M⁻¹ s⁻¹ | kB, second-order rate constant for the buffer species ([1]; Citrate^-3, 80° C.): 9.4e-07 M⁻¹ s⁻¹ | kB, second-order rate constant for the buffer species ([1]; Citric Acid, 80° C.): 1.03e-06 M⁻¹ s⁻¹ | kB, second-order rate constant for the buffer species ([1]; Dihydrogen citrate^-1, 80° C.): 5.3e-07 M⁻¹ s⁻¹ | kB, second-order rate constant for the buffer species ([1]; Dihydrogen phosphate^-1, 80° C.): 3.95e-07 M⁻¹ s⁻¹ | kB, second-order rate constant for the buffer species ([1]; Hydrogen citrate^-2, 80° C.): 8.23e-08 M⁻¹ s⁻¹ | kB, second-order rate constant for the buffer species ([1]; Hydrogen phosphate^-2, 80° C.): 1.17e-07 M⁻¹ s⁻¹ | k', first-order rate constant extrapolated to zero buffer concentration ([1]; Phosphate pH 6.5, 80° C.): 0.0119 day⁻¹ | kB, second-order rate constant for the buffer catalysis ([1]; Phosphate pH 6.5, 80° C.): 3.5e-07 M⁻¹ s⁻¹ | k', first-order rate constant extrapolated to zero buffer concentration ([1]; Phosphate pH 7.4, 80° C.): 0.0161 day⁻¹ | kB, second-order rate constant for the buffer catalysis ([1]; Phosphate pH 7.4, 80° C.): 2.2e-07 M⁻¹ s⁻¹ | primary route of degradation ([1]; analysis of degradation product, 80° C.): through the hydrolysis of the amide linkage | buffer catalysis of degradation ([1]; citrate and acetate at the pH minimum, 80° C.): Citrate and acetate were both catalytic at the pH minimum, with citrate being a stronger catalyst than acetate | pH at which overall rate constant was minimum ([1]; hydrolysis, 80° C.): approximately 4 | kinetics of hydrolysis ([1]; pH range of 0.6 to 12.6, 80° C.): apparent first-order kinetics | effect of concentration and ionic strength on stability ([1]; summary, 80° C.): negligible effects on the stability | samples that developed crystals ([2]; pH 3.0, autoclaved, 4° C. over 43 days): 0 of 48 | samples that developed crystals ([2]; pH 3.0, non-autoclaved, 4° C. over 43 days): 0 of 48 | samples that developed crystals ([2]; pH 3.5, autoclaved, 4° C. over 43 days): 0 of 49 | samples that developed crystals ([2]; pH 3.5, non-autoclaved, 4° C. over 43 days): 3 of 50 | samples that developed crystals ([2]; pH 4.0, autoclaved, 4° C. for 43 days): 0 of 50 | samples that developed crystals ([2]; pH 4.0, non-autoclaved, 4° C., 43 days): 1 of 50 | effect of autoclaving on crystal formation ([2]; subsequent storage at 4° C.): autoclaving prevents the formation of crystals | effect of initial concentration on degradation ([3]; 1, 25 and 50 mg/ml): not concentration dependent in this range | kobs, observed first-order rate constant ([3]; initial concentration 1 mg/ml): 0.00957 ± 7.37e-05 day⁻¹ | kobs, observed first-order rate constant ([3]; initial concentration 25 mg/ml): 0.0127 ± 0.000586 day⁻¹ | kobs, observed first-order rate constant ([3]; initial concentration 50 mg/ml): 0.0127 ± 0.000153 day⁻¹ | solubility (physchem; initial dissolved concentration (before crystals appeared)): > 150 mg/mL | solubility at 24 h (physchem; solubility): 59.2 to 71.7 mg/mL (≈ 276 to 335 mM) | solubility at 24 h (physchem; water, pH 6.5, water, solubility in water): 68.1 mg/mL (≈ 318 mM)
